Measured values as given in the supplement of paper PMC10307832.

Columns and labels:
Experiment in all cases: relative viability (nuclei count vs DMSO), 5 days (fraction); higher = more cells survive
[1] = compound: C=C(c1ccc(C(=O)O)cc1)c1cc2c(cc1C)C(C)(C)CCC2(C)C [Bexarotene] + CC(=O)Nc1cccc(-n2c(=O)n(C3CC3)c(=O)c3c(Nc4ccc(I)cc4F)n(C)c(=O)c(C)c32)c1 [Trametinib] (partner 0.02 µM)
Outline: (§1)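 After 5 days of treatment, lung cancer cells in 1536-well plates were fixed and stained in a single step (final 0.05% Triton X-100, 1% formaldehyde, 1 ug/ml Hoechst) and their nuclei counted on 4× images. Treatment had been applied by pin tool the day after seeding as one drug alone or as a fixed anchor-drug dose with five library-drug doses (not always all listed) in √10 steps. Relative viability is the nuclei count of treated wells divided by that of vehicle wells, and values are medians of duplicate plates.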

[2] = compound: C=C(c1ccc(C(=O)O)cc1)c1cc2c(cc1C)C(C)(C)CCC2(C)C [Bexarotene] + COc1cccc2cc(-c3nc([C@H]4CC[C@H](C(=O)O)CC4)n4ncnc(N)c34)[nH]c12 [OSI-027] (partner 0.5 µM)
Outline: as §1

[3] = compound: C=C(c1ccc(C(=O)O)cc1)c1cc2c(cc1C)C(C)(C)CCC2(C)C [Bexarotene] + CS(=O)(=O)CCNCc1ccc(-c2ccc3ncnc(Nc4ccc(OCc5cccc(F)c5)c(Cl)c4)c3c2)o1 [Lapatinib] (partner 2 µM)
Outline: as §1

[4] = compound: C=C(c1ccc(C(=O)O)cc1)c1cc2c(cc1C)C(C)(C)CCC2(C)C [Bexarotene] + C[C@]1(O)C[C@@H](c2nc(-c3ccc4ccc(-c5ccccc5)nc4c3)c3c(N)nccn32)C1 [Linsitinib] (partner 1 µM)
Outline: as §1

Cell Line | relative viability ([1]; first compound 0.08 µM) | relative viability ([1]; first compound 0.253 µM) | relative viability ([1]; first compound 0.8 µM) | relative viability ([1]; first compound 2.53 µM) | relative viability ([1]; first compound 8 µM) | relative viability ([2]; first compound 0.08 µM) | relative viability ([2]; first compound 0.253 µM) | relative viability ([2]; first compound 0.8 µM) | relative viability ([2]; first compound 2.53 µM) | relative viability ([2]; first compound 8 µM) | relative viability ([3]; first compound 0.08 µM) | relative viability ([3]; first compound 0.253 µM) | relative viability ([3]; first compound 0.8 µM) | relative viability ([3]; first compound 2.53 µM) | relative viability ([3]; first compound 8 µM) | relative viability ([4]; first compound 0.08 µM) | relative viability ([4]; first compound 0.253 µM) | relative viability ([4]; first compound 0.8 µM) | relative viability ([4]; first compound 2.53 µM) | relative viability ([4]; first compound 8 µM)
NCI-H23 | 0.447 | 0.435 | 0.395 | 0.364 | 0.347 | 0.607 | 0.597 | 0.6 | 0.55 | 0.461 | 1.13 | 1.11 | 1.2 | 1.06 | 1.12 | 0.737 | 0.673 | 0.533 | 0.638 | 0.654
NCI-H322M | 0.578 | 0.443 | 0.534 | 0.501 | 0.508 | 0.698 | 0.351 | 0.637 | 0.585 | 0.623 | 0.634 | 0.572 | 0.658 | 0.625 | 0.578 | 1.08 | 0.947 | 0.846 | 0.92 | 0.891
NCI-H358 | 0.134 | 0.12 | 0.111 | 0.119 | 0.123 | 0.764 | 0.774 | 0.685 | 0.798 | 0.633 | 0.461 | 0.464 | 0.483 | 0.574 | 0.535 | 0.874 | 0.699 | 0.568 | 0.778 | 0.643
NCI-H460 | 0.153 | 0.155 | 0.13 | 0.199 | 0.177 | 0.844 | 0.727 | 0.704 | 0.701 | 0.618 | 1.01 | 1.03 | 0.948 | 0.981 | 0.731 | 0.94 | 0.865 | 0.757 | 0.66 | 0.744
NCI-H520 | 0.668 | 0.63 | 0.742 | 0.662 | 0.643 | 0.238 | 0.207 | 0.276 | 0.222 | 0.241 | 1.12 | 0.793 | 0.577 | 0.875 | 0.71 | 1.02 | 0.951 | 0.79 | 0.976 | 0.88
NCI-H596 | 0.862 | 0.876 | 0.654 | 0.762 | 0.802 | 0.859 | 0.69 | 0.704 | 0.708 | 0.634 | 1.07 | 1 | 0.783 | 0.916 | 0.928 | 1.12 | 0.966 | 0.838 | 0.981 | 1.06
NCI-H647 | 0.663 | 0.46 | 0.335 | 0.433 | 0.44 | 0.636 | 0.627 | 0.601 | 0.573 | 0.624 | 1.33 | 1.17 | 1.19 | 1.24 | 0.964 | 1.29 | 1.41 | 1.22 | 1.26 | 0.914
NCI-H650 | 1.17 | 0.957 | 1.02 | 0.972 | 0.957 | 0.516 | 0.521 | 0.523 | 0.485 | 0.494 | 1.08 | 1.06 | 0.915 | 0.634 | 0.778 | 0.869 | 0.926 | 0.793 | 0.645 | 0.83
NCI-H661 | 0.58 | 0.523 | 0.544 | 0.543 | 0.495 | 0.631 | 0.665 | 0.647 | 0.623 | 0.635 | 0.432 | 0.554 | 0.477 | 0.516 | 0.513 | 0.533 | 0.611 | 0.437 | 0.587 | 0.549
NCI-H727 | 0.377 | 0.362 | 0.293 | 0.382 | 0.292 | 0.63 | 0.657 | 0.478 | 0.465 | 0.612 | 1.02 | 0.887 | 0.881 | 0.762 | 0.811 | 0.286 | 0.408 | 0.305 | 0.311 | 0.284
NCI-H838 | 0.551 | 0.611 | 0.545 | 0.657 | 0.585 | 0.443 | 0.391 | 0.465 | 0.47 | 0.554 | 1.05 | 1.19 | 0.974 | 1.14 | 1.03 | 1.13 | 1.11 | 1.03 | 1.17 | 1.06
NCI-H1355 | 0.468 | 0.445 | 0.373 | 0.479 | 0.457 | 0.41 | 0.426 | 0.37 | 0.387 | 0.462 | 1.02 | 1.1 | 0.898 | 1.1 | 0.936 | 1.02 | 0.945 | 0.801 | 0.923 | 0.764
NCI-H1395 | 1.18 | 1.03 | 1.15 | 0.908 | 1.1 | 0.672 | 0.653 | 0.616 | 0.624 | 0.633 | 1.05 | 0.935 | 0.926 | 0.902 | 0.997 | 1.15 | 1.08 | 1.23 | 1.07 | 1.11
NCI-H1437 | 0.552 | 0.508 | 0.488 | 0.482 | 0.459 | 0.985 | 0.819 | 1.01 | 0.89 | 0.982 | 0.975 | 0.893 | 0.759 | 0.9 | 0.778 | 1.01 | 1.09 | 0.93 | 1 | 0.898
NCI-H1651 | 0.861 | 0.867 | 0.884 | 0.875 | 0.827 | 0.843 | 0.717 | 0.71 | 0.702 | 0.744 | 1.08 | 0.968 | 0.887 | 0.862 | 0.753 | 1.12 | 0.934 | 1.02 | 1.08 | 0.984
NCI-H1666 | 0.912 | 0.788 | 0.839 | 0.809 | 0.743 | 0.774 | 0.759 | 0.566 | 0.747 | 0.593 | 0.753 | 0.588 | 0.446 | 0.512 | 0.504 | 0.889 | 0.783 | 0.844 | 0.931 | 0.661
NCI-H1734 | 0.69 | 0.732 | 0.642 | 0.589 | 0.57 | 0.616 | 0.64 | 0.591 | 0.493 | 0.543 | 1.02 | 1.04 | 1.07 | 0.942 | 0.944 | 0.906 | 0.857 | 0.81 | 0.794 | 0.806
NCI-H1755 | 0.849 | 0.864 | 0.834 | 0.773 | 0.718 | 0.777 | 0.741 | 0.675 | 0.637 | 0.611 | 1.07 | 1.29 | 1.1 | 0.994 | 1.02 | 1.05 | 1.1 | 1.08 | 0.992 | 1.02
NCI-H1792 | 0.677 | 0.46 | 0.442 | 0.493 | 0.345 | 0.739 | 0.757 | 0.681 | 0.764 | 0.68 | 0.883 | 0.763 | 0.794 | 0.574 | 0.837 | 0.437 | 0.586 | 0.259 | 0.422 | 0.342
NCI-H1793 | 0.395 | 0.4 | 0.415 | 0.397 | 0.408 | 0.339 | 0.319 | 0.313 | 0.203 | 0.311 | 0.647 | 0.68 | 0.647 | 0.568 | 0.519 | 1.08 | 0.959 | 1.03 | 0.914 | 0.897
NCI-H1915 | 0.297 | 0.286 | 0.266 | 0.255 | 0.218 | 0.67 | 0.661 | 0.568 | 0.594 | 0.601 | 1.1 | 0.793 | 0.979 | 0.999 | 1.04 | 1.16 | 1.12 | 1.03 | 1.04 | 1.07
NCI-H1944 | 0.526 | 0.517 | 0.465 | 0.47 | 0.425 | 0.616 | 0.495 | 0.48 | 0.476 | 0.451 | 1.17 | 0.934 | 0.961 | 0.929 | 0.768 | 1.5 | 1.36 | 1.4 | 1.41 | 1.19
NCI-H1975 | 0.387 | 0.38 | 0.307 | 0.331 | 0.333 | 0.9 | 0.811 | 0.802 | 0.806 | 0.722 | 1.25 | 1.01 | 1 | 1.1 | 0.988 | 1.06 | 1.12 | 1.08 | 1.22 | 1.1
NCI-H1993 | 0.547 | 0.541 | 0.507 | 0.395 | 0.544 | 0.588 | 0.498 | 0.564 | 0.54 | 0.564 | 0.858 | 0.826 | 0.809 | 0.802 | 0.814 | 0.718 | 0.665 | 0.608 | 0.656 | 0.774
NCI-H2009 | 0.336 | 0.331 | 0.28 | 0.391 | 0.413 | 0.729 | 0.705 | 0.584 | 0.547 | 0.598 | 0.794 | 1.14 | 1.06 | 1.06 | 0.999 | 1.33 | 1.36 | 1.13 | 1.18 | 1.13
NCI-H2023 | 0.719 | 0.676 | 0.551 | 0.497 | 0.355 | 0.384 | 0.391 | 0.439 | 0.311 | 0.378 | 1.03 | 1.14 | 0.979 | 0.63 | 0.595 | 0.785 | 0.911 | 0.735 | 0.683 | 0.625
